From US4783482A, “Bis(thiocyanato)palladium(II)complexes” (Engelhard Corporation, priority 1985, dated 1988)
“And” between values parts separate entries of the source, which are not always exact repeats. Identical values can stand only once.

What was measured:
S180 ascites [1] = test: Anti-tumor evaluation: % increase in life span (% ILS) and survivors, S180 ascites in female CFW Swiss mice; assay type: in vivo; conditions: for Best % ILS: best over doses
Experimental: The above-prepared compounds were evaluated against S180 ascites in female CFW Swiss mice. The mice were weighed (average weight: 20 g), placed into cages (four or six mice to a cage), and on day zero the mice were inoculated with 0.2 ml of a freshly prepared saline suspension (0.15 M NaCl) containing 1×10^7 tumor cells/ml or a total of 2×10^6 cells This inoculum was freshly prepared using "transfer" mice, which had been injected with tumor cells the previous week; it was obtained via the following steps: (1) the removal of cells from the peritoneal cavity of the sacrificed transfer mouse, (2) alternate centrifugation and washing operations (2-3 times with cold saline) to remove blood and other components, and (3) dilution of the volume of the packed cell with saline (1:3). A final centrifugation was carried out at 1000 RPM over a two minute period. A cell count was made on a 2,000-fold dilution of this 1:3 suspension by means of a Coulter Counter. A final dilution to 1×10^7 cells/ml was made, based on the average count.
On day 1, solutions of the test compounds were prepared, and each mouse in a set of four or six were injected with the same test compound at the same dosage. The doses were based on the average weight of the animals (cage weight). Also, beginning on day 1, two controls were employed containing six mice per control:
(1) Normal Control: This consisted solely of the carrier or diluent used in combination with the test compound; and
(2) Positive Control: This consisted solely of known anti-tumor agent cis-[Pt(NH3)2 Cl2 ] in saline (8 mg/kg) to test the response of the biological system.
The effectiveness of a test compound was measured in terms of the % increase in life span (%ILS) of the test mice relative to the Normal Control (Calculated from the day of tumor inoculation, i.e., day zero). To standardize the test data and permit intercomparisons, the day of evaluation was arbitrarily taken as that day corresponding to twice the mean life span (or average day of death) of the control. This established a practical upper limit of 100% on the %ILS attainable. For calculation purposes, the survivors of the day of evaluation were considered to have died on that day. The %ILS was calculated as follows: [formula] ILS values in excess of 50% were interpreted as antitumor activity, whereas values in excess of 75% indicated excellent antitumor activity.
All test compounds were evaluated in water containing 0.1-0.3% of the suspending agent "Klucel" (hydroxypropylcellulose).
Tables 3 and 4, infra, show the criticality of the ring size and the thiocyanato substituents, respectively. The protocols for determining effectiveness for the products in Tables 3 and 4 were identical to the procedure employed for determining the anti-tumor effectiveness of the products in Table 2.

S180 Ascites [2] = test: ED90, LD50 and therapeutic index, S180 ascites; assay type: in vivo, mice; parameters: ED90: unit not given here
Experimental: The effective dose (ED90), lethal does (LD50) and therapeutic index (TI) were determined, via the method of Miller and Taiter (Reported by R. A. Turner, "Screening Methods in Pharmacology", Academic Press, New York, pages 61-62 (1976)).
In this study, ED90 represents the dose which causes a 50% increase in life span (ILS) in 90% of the test animals (mice), determined graphically. The LD50 value represents the lethal dose in 50% of said animals.

[3] = system: testicular and ovarian tumors; conditions: background; cited from earlier work
[4] = dose 10 mg/kg, on day of evaluation
[5] = dose 20 mg/kg, on day of evaluation
[6] = dose 40 mg/kg, on day of evaluation
[7] = dose 80 mg/kg, on day of evaluation
[8] = dose 160 mg/kg, on day of evaluation

Structure (SMILES)	Best % ILS (S180 ascites [1])	% ILS (S180 ascites [1]; dose 10 mg/kg) [%]	Survivors (S180 ascites [1]; [4])	% ILS (S180 ascites [1]; dose 20 mg/kg) [%]	Survivors (S180 ascites [1]; [5])	% ILS (S180 ascites [1]; dose 40 mg/kg)	Survivors (S180 ascites [1]; [6])	% ILS (S180 ascites [1]; dose 80 mg/kg)	Survivors (S180 ascites [1]; [7])	% ILS (S180 ascites [1]; dose 160 mg/kg) [%]	Survivors (S180 ascites [1]; [8])	also measured
N#C[S][Pd][S]C#N.NC1CCCCC1N (centres unmarked) [Ex. 3, Bis(ThiocYanato)-1,2-Diaminocyclohexanepalladium(II)]	100% and 75%	5	0 of 4	1	0 of 4	-1% and -3%	0 of 4	75% and 100%	3 of 4 and 4 of 4	39	1 of 4	% ILS (S180 ascites [1]; dose 5 mg/kg): 0%; Survivors (S180 ascites [1]; dose 5 mg/kg, on day of evaluation (twice mean life span of control)): 0 of 4; % ILS (S180 ascites [1]; dose 60 mg/kg): 22%; Survivors (S180 ascites [1]; dose 60 mg/kg, on day of evaluation): 0 of 4; % ILS (S180 ascites [1]; dose 100 mg/kg): 79%; Survivors (S180 ascites [1]; dose 100 mg/kg, on day of evaluation): 2 of 4; % ILS (S180 ascites [1]; dose 120 mg/kg): 36%; Survivors (S180 ascites [1]; dose 120 mg/kg, on day of evaluation): 2 of 4; % ILS (S180 ascites [1]; dose 140 mg/kg): 36%; Survivors (S180 ascites [1]; dose 140 mg/kg, on day of evaluation): 1 of 4; Therapeutic Index (S180 Ascites [2]; mouse, in vivo): 2.0 and 2.8
N.N.[Cl][Pt][Cl] [Positive Control, cis-[Pt(NH3)2 Cl2]]	–	–	–	–	–	–	–	–	–	–	–	Positive Control Survivors (S180 ascites [1]; 8 mg/kg in saline, run beside the test compound): 2 of 6 and 3 of 6 and 1 of 4 and 1 of 6 and 0 of 6; anti-tumor activity (in words) [3]: singularly successful in bringing about a regression of testicular and ovarian tumors
N#C[S][Pd]1([S]C#N)[NH]c2ccccc2[NH]1 [Ex. 5, Bis(Thiocyanato)-o-Phenylenediaminepalladium(II)]	81%	14	0 of 4	15	0 of 4	27%	0 of 4	81%	2 of 4	79	1 of 4	% ILS (S180 ascites [1]; dose 320 mg/kg): -73%; Survivors (S180 ascites [1]; dose 320 mg/kg, on day of evaluation): 0 of 4; ED90 (S180 Ascites [2]; dose which causes a 50% increase in life span in 90% of the mice, determined graphically): 130
